Like-named read-outs stand apart in the source and are kept apart here.

In assay [1] the test system is monoclonal anti-theophylline. Briefly: Assay for theophylline using encapsulated Theophylline-G6PDH as a single liquid reagent. The format is biochemical. The protocol:
Theophylline-G6PDH was encapsulated in liposomes (POPC 76%, POPG 4%, and cholesterol 20%) and used in an assay for theophylline. The assay employed the following reagents:
Protocol 0.3 ml of the Reagent dispensed into a Croan cup.

A further assay concerns G6PDH. Briefly: Inhibition of G6PDH by encapsulated and free Anti-G6PDH, with or without Triton. The following applies: Triton 5%; in words. The assay is classed as biochemical. The protocol:
Anti-G6PDH was encapsulated in liposome. The liposome composition was L-α-dioleoyl lecithin (70%) and L-α-dioleoyl phosphatidyl glycerol (30%).
Enzyme: G6PDH, dissolved in buffer
Free Antibody: Anti-G6PDH, in buffer
Substrate: 0.13M G6P, 0.08M NAD, and
Protocol: 50 μl of enzyme (270 ng) was mixed with 50 μl of free or encapsulated antibody and 0.6 ml Buffer containing (1 mg/ml) with or without 5% Triton. After one hour at ambient temperature, 50 μl of substrate was added together with 0.3 ml buffer.

Assay [2] concerns Anti-digoxin.
Protocol: Reagent: Digoxin-G6PDH encapsulated
in liposomes (POPC 70%, POPG
Anti-digoxin optimized for
response, 0.13M G6P, RSA (20
Diluent: 0.5% Triton, 4 mM NAD, 5mM
Protocol: 50 μl of the reagent was drawn up into a diluter and dispensed with 200 μl of buffer containing RSA (1 mg/ml) into a 1 ml Croan cup. A 50 μl aliquot of the sample was drawn up and dispersed with 700 μl of diluent into the Croan cup. Immediately after sample addition, the entire sample was aspirated into a flow cell and readings were taken at 30° over thirty seconds.
In assay [3] the test system is Anti-digoxin. This is another data set of the same source.
Text: As a comparison to the assay using a single liquid reagent an assay was run using unencapsulated enzyme conjugate and antibody in separate liquid reagents. The reagent quantities and the final volume of the assay were arranged to be identical to those in the single reagent assay above in Example 3.
[4] abbreviates: digoxin 0.083 μg/ml, 30°, thirty seconds.

Regarding `Cn1c(=O)c2[nH]cnc2n(C)c1=O` [Theophylline, theophylline], the “enzyme activity, Single Reagent” value in assay [1] (theophylline 2.5 μg/ml, 30°, thirty second read) turned out to be 356 Eu; in assay [1] (theophylline 5 μg/ml), 394 Eu; in assay [1] (theophylline 10 μg/ml), 455 Eu; in assay [1] (theophylline 20 μg/ml) it was 537 Eu; in assay [1] (theophylline 40 μg/ml), 610 Eu.

For Triton, the “effect of Triton on enzyme activity or extent of inhibition in enzyme by antibody” value with G6PDH was “did not affect”.

Turning to `C[C@H]1O[C@@H](O[C@H]2[C@@H](O)C[C@H](O[C@H]3[C@@H](O)C[C@H](O[C@H]4CC[C@@]5(C)[C@H](CC[C@@H]6[C@@H]5C[C@@H](O)[C@]5(C)[C@@H](C7=CC(=O)OC7)CC[C@]65O)C4)O[C@@H]3C)O[C@@H]2C)C[C@H](O)[C@@H]1O` [Digoxin, digoxin], the “enzyme activity, Single Reagent” value in the assay with Anti-digoxin [2] (setting [4]) is given as 403 EU; in the assay with Anti-digoxin [2] (digoxin 0.166 μg/ml) it was 440 EU; in the assay on Anti-digoxin [2] (digoxin 0.333 μg/ml) it was 511 EU; in the assay with Anti-digoxin [2] (digoxin 0.666 μg/ml), 584 EU; in the assay with Anti-digoxin [2] (digoxin 1.33 μg/ml) it was 628 EU; with Anti-digoxin [2] (digoxin 2.66 μg/ml), 653 EU. In addition, the “enzyme activity, Single Reagent” value in the assay on Anti-digoxin [2] (digoxin 10.65 μg/ml) worked out at 665 EU. Further, the “enzyme activity, Two Reagent” value with Anti-digoxin [3] (setting [4]) is 410 EU; in the assay with Anti-digoxin [3] (digoxin 0.166 μg/ml), 456 EU; in the assay with Anti-digoxin [3] (digoxin 0.333 μg/ml) it was 518 EU; in the assay on Anti-digoxin [3] (digoxin 0.666 μg/ml), 603 EU; in the assay on Anti-digoxin [3] (digoxin 1.33 μg/ml) it was 645 EU; in the assay with Anti-digoxin [3] (digoxin 2.66 μg/ml) it was 678 EU. Also, the “enzyme activity, Two Reagent” value with Anti-digoxin [3] (digoxin 5.33 μg/ml) is given as 713 EU; with Anti-digoxin [3] (digoxin 10.65 μg/ml), 717 EU.

These data come from patent US5068198A, “Liquid single reagent for assays involving confining gels” (Syntex (U.S.A.) Inc., priority 1989, dated 1991).
